{"source": "patent US10188601B2", "about": "“Continuous long-term controlled release of telomerase inhibitors” (priority 2013, dated 2019)", "key": {"cellular DNA": {"system": "cellular DNA", "experimental": "PdTMPyP4 was dissolved directly into medium as described above. After incubation with graded concentrations of PdTMPyp4 added to the medium for 24 or 48 h, the DNA was extracted and digested. […] Details of the methods used to extract the DNA fraction and prepare the samples for ICP-MS are given in Laster B H, et al. Brachytherapy. 2009; 8:324-30."}, "telomerase": {"system": "telomerase", "conditions": "L428 cells, 24 h incubation, graded concentrations; Pd tag versus H2 tag", "experimental": "L428 cells were incubated for 24 h with graded concentrations of PdTMPyP4 or H2TMPyP4 dissolved in RPMI 1640 complete medium. The activation or inhibition of telomerase was measured using the Telomeric Repeat Amplification Protocol (TRAP) assay. The procedure is detailed in Tichon A, et al, Cytotherapy. 2009; 11:837-48."}, "[1]": {"conditions": "single rod per tumor", "from_the_text": "One PdTMPyP4 rod, prepared according to the Example 1, was implanted into the KHJJ tumor of each of 4 mice as described in the Example 7 above.\nBlood was withdrawn from the junction of the submandibular/facial vein, centrifuged, and the clear supernatant removed, diluted 1:100 and measured in double-distilled water (DDW) as described in the Example 10 below."}, "[2]": {"experiment": "In vitro release of PdTMPyP4 from PLGA rods over time in normal saline", "assay_type": "physicochemical", "protocol": "Eight rods, two each of matching weights, were placed in individual Eppendorf tubes with 1 ml of normal saline and incubated at 37° C. For measuring PdTMPyP4 release via absorbance, a 10 μl sample were removed and diluted 1:100 with DDW, and absorbance of the resulting solution measured in the spectrophotometer at 415 nm for the first 28 days. […] The removal of a 10 μl sample from the fresh saline solution required a 1:10 dilution in DDW for appropriate reading. […] To compare the release of PdTMPyP4 after the various dilutions, the concentrations were normalized to the dilution factor used during the first 28 days (1:100)."}, "[3]": {"system": "L428 Hodgkin's lymphoma cells", "description": "In these experiments, PdTMPyP4/PLGA rods, manufactured as described in the Example 1, were used to release and maintain the continuous exposure of exponentially-growing L428 Hodgkin's Lymphoma cells to PdTMPyP4 throughout the 8 day experiment. To maintain and encourage exponential growth, cells were split before they neared their maximum density 1.5×10^6 cells/ml. Precautions were taken, in advance, to prevent the dilution of the drug during cell splitting by placing the rods into the medium that would be used when splits were required. Cells were initially seeded into each of 3 different treatment flasks at a cell density of 3.0×10^5 cells/ml in a volume of 25 ml. The cultures were split at 120 and 192 hours. The flasks consisted of:\nFourteen ‘medium-transfer’ flasks were prepared in advance for use during the splitting of the flasks. Twelve (6 each) of these contained 25 ml of complete medium and either 2 PdTMPyP4/PLGA rods or 2 blank PLGA rods.\nTwo additional flasks contained 25 ml conditioned medium were prepared in advance, by removing from previously grown cells and sterilizing, and whereto either PdTMPyP4/PLGA or 2 PLGA rods were added. This approach permitted the same exponential growth conditions for all treatments even when the flasks were split.\nWhen cells in either flask A, B, or C neared their maximum cell density and required splitting, all flasks were split at this same time and medium from the transfer flasks was added to both the original and new flasks to restore the volume to 25 ml. A 3-ml aliquot of cells was removed from the flasks containing the suspension cells and was counted on a daily basis using a hemocytometer and trypan blue exclusion. The volume removed was replaced with the pretreated medium. […] Cells in each of the split dishes were counted, and counts from all flasks were combined to yield the total number of cells. By combining the cell counts from the split flasks, and using the total cell number, technical errors in counting the cells from the different flasks were reduced."}}, "data": [{"smiles": "C[n+]1ccc(-c2c3nc(c(-c4cc[n+](C)cc4)c4ccc([n-]4)c(-c4cc[n+](C)cc4)c4nc(c(-c5cc[n+](C)cc5)c5ccc2[n-]5)C=C4)C=C3)cc1.[Pd+2]", "note": "[PdTMPyP4, Palladium-tagged tetra (4-N-methylpyridyl) porphyrin]", "values": [{"measurement": "effect of Pd tag on DNA uptake of the porphyrin", "setting": "cellular DNA; compared with naive TMPyP4", "result": "does not alter DNA uptake"}, {"measurement": "uptake in DNA converted to moles", "setting": "cellular DNA; incubation 24 or 48 h with graded concentrations", "result": "about 1.7×10^−14 mol"}, {"measurement": "measured uptake of Pd atoms in the DNA of the cell", "setting": "cellular DNA; incubation 24 or 48 h with graded concentrations, ICP-MS", "result": "about 10^9 Pd atoms"}, {"measurement": "telomerase activity inhibition", "setting": "telomerase", "result": "superior inhibition"}, {"measurement": "plasma levels by the second and third week", "setting": "[1]", "result": "restoration of plasma levels to that on day 0"}, {"measurement": "PdTMPyP4 concentration in blood plasma", "setting": "[1]; four mice, weekly measurements", "result": "negligible concentrations"}, {"measurement": "duration of gradual and continuous release", "setting": "[2]", "result": "> 30", "unit": "days"}, {"measurement": "time of sudden decrease in cells exposed", "setting": "[3]; 19-day experiment, continuous release from PLGA rods", "result": "about 200 h"}, {"measurement": "factor by which cell number was lower than with the other treatments", "setting": "[3]; 19-day experiment, from about 200 h through remaining 11 days", "result": "5-6 times"}, {"measurement": "cell number compared to the other treatments at end of experiment", "setting": "[3]; 8 day experiment, 264 h, versus untreated and blank PLGA", "result": "lower"}, {"measurement": "time to L428 cell lethality after telomerase inhibition", "setting": "[3]; continuous exposure via rods", "result": "about 8 days"}]}]}
